What all share (test): kinase panel
Holding throughout (assay type): biochemical

For one experiment, the target named is CLK2(h) (Homo sapiens, UniProt P49760). Put shortly:
(§1)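 Values are percent inhibition from kinome-wide profiling of three series compounds across 231 kinases, with a structurally similar analogue tested on only 98 selected kinases.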

A further experiment deals with T1, Flt3(h) (Homo sapiens, UniProt P36888).
T1 sequence (P36888 27-993): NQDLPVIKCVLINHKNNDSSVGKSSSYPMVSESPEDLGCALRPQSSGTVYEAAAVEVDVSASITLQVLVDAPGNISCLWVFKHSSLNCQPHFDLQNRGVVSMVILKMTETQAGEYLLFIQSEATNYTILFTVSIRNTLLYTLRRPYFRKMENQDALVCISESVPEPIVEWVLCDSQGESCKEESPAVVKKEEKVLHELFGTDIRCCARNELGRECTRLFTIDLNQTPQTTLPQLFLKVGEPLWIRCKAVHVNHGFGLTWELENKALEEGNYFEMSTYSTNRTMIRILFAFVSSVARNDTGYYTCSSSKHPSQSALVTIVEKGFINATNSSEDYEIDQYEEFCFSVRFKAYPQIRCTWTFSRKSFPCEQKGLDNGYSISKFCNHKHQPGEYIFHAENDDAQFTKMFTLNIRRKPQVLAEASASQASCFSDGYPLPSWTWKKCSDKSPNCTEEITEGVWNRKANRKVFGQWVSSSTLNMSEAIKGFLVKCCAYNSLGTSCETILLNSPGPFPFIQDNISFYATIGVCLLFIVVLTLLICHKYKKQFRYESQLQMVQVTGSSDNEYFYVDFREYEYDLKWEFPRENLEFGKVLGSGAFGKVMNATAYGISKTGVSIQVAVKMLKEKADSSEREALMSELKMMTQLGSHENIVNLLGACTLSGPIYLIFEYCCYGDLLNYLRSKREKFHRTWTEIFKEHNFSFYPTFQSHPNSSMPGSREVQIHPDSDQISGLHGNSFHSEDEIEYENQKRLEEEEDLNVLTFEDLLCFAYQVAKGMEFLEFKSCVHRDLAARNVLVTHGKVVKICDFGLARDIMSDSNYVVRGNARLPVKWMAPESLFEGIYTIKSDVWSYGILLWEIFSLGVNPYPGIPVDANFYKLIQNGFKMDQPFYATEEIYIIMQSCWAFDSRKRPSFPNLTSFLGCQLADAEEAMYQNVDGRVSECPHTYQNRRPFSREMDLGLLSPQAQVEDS
Put shortly: as §1

A further experiment concerns the target CK1δ(h) (Homo sapiens, UniProt P48730). Put shortly: as §1
The next experiment has as its target CHK2(h) (Homo sapiens, UniProt O96017). An outline of the steps:
as §1

For another experiment, the target named is JNK3(h) (Homo sapiens, UniProt P53779). An outline of the steps:
as §1

Another experiment addresses CDK7/cyclinH/MAT1(h) (Homo sapiens, UniProt P50613). Put shortly:
as §1

The target in the next experiment is T2, PKCμ(h) (Homo sapiens, UniProt Q15139).
T2 sequence (Q15139 1-912): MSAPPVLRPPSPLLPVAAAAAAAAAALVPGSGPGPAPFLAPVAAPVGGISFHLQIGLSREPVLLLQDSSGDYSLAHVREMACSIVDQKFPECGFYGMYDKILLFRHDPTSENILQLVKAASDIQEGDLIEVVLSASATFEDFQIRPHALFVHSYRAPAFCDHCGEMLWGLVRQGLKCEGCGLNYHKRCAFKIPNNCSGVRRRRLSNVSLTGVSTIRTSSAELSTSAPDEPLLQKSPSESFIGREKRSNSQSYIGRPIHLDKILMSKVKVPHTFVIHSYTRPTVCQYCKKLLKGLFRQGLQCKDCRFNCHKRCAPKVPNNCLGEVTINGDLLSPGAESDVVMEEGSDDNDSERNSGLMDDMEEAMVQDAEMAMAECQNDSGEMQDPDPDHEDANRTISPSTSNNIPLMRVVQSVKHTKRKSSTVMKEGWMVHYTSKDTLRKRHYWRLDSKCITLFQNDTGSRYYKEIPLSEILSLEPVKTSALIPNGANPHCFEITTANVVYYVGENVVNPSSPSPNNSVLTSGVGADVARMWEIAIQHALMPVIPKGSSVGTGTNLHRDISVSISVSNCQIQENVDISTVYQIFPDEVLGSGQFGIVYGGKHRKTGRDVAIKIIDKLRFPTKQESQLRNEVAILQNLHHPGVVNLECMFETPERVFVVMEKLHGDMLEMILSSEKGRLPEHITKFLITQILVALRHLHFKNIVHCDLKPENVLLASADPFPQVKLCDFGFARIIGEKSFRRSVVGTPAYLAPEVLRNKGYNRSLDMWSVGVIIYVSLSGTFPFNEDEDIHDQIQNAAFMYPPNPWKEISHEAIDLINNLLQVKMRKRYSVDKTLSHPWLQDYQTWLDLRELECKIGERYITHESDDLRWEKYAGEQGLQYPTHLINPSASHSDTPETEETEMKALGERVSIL
Put shortly:
as §1

The next experiment concerns the target Plk1(h) (Homo sapiens, UniProt P53350). An outline of the steps: as §1
The target in a further experiment is CK2(h) (Homo sapiens, UniProt P68400). An outline of the steps: as §1
Sequence of CK2(h) (P68400 whole entry): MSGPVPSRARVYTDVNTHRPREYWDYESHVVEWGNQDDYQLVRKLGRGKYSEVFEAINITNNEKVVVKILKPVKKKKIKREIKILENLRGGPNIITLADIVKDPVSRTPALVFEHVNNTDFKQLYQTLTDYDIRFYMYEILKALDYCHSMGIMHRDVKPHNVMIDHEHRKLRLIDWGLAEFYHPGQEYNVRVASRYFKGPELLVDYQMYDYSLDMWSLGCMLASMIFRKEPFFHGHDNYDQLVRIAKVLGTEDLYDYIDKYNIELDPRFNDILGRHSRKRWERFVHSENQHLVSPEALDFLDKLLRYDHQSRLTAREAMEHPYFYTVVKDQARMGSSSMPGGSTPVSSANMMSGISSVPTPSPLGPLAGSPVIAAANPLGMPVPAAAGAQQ
Sequence of CK2(h) (P67870 whole entry partner): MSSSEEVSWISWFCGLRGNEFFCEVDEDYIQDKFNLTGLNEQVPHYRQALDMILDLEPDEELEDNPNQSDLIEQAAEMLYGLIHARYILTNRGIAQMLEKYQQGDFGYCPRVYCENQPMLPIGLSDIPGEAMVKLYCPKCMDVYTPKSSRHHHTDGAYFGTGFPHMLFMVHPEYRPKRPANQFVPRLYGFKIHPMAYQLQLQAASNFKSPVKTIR
A further experiment concerns the target CDK9/cyclin T1(h) (Homo sapiens, UniProt P50750). An outline of the steps: as §1

Sequence of CHK2(h) (O96017 whole entry): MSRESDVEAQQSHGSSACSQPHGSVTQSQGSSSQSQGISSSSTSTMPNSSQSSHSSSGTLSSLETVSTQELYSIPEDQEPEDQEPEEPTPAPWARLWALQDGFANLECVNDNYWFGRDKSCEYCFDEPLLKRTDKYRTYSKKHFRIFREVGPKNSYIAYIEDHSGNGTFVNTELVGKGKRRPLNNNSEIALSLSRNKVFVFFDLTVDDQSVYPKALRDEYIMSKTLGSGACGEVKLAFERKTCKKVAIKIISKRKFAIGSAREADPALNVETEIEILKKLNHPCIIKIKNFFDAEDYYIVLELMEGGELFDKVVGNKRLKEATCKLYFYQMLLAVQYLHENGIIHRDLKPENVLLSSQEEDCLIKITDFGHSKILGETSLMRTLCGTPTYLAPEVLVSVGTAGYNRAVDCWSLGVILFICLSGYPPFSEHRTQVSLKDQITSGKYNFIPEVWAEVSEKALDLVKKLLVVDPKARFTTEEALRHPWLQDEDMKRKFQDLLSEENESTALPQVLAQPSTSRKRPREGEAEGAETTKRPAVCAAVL
Sequence of CDK9/cyclin T1(h) (P50750 whole entry): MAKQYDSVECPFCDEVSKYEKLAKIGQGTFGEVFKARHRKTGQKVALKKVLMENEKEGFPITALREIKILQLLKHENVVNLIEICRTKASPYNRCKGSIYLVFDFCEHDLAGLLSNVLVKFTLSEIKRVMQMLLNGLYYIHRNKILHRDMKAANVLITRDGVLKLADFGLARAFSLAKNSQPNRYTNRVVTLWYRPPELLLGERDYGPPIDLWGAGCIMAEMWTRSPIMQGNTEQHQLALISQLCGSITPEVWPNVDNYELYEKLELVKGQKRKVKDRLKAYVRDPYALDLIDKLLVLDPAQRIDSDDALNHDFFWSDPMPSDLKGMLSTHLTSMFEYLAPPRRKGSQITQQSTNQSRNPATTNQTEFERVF
Sequence of CDK9/cyclin T1(h) (O60563 whole entry partner): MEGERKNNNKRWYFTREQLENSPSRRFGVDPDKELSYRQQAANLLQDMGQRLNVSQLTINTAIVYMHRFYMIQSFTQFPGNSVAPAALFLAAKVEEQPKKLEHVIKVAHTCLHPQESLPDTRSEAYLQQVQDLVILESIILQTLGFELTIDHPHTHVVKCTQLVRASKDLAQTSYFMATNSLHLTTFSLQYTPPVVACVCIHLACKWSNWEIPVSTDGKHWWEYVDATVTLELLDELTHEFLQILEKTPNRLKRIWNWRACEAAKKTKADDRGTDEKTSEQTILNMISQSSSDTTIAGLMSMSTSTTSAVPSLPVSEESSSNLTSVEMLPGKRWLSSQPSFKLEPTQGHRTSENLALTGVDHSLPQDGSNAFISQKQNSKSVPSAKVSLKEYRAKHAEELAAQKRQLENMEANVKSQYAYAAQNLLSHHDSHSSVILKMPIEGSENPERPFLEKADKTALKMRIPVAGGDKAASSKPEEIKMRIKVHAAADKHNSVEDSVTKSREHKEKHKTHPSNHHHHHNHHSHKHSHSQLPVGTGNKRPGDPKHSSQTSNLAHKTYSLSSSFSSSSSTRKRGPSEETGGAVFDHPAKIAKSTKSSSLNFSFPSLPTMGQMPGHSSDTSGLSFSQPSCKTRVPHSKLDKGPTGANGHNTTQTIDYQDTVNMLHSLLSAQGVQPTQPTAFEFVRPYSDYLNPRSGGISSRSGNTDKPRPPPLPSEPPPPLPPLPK
Sequence of CLK2(h) (P49760 whole entry): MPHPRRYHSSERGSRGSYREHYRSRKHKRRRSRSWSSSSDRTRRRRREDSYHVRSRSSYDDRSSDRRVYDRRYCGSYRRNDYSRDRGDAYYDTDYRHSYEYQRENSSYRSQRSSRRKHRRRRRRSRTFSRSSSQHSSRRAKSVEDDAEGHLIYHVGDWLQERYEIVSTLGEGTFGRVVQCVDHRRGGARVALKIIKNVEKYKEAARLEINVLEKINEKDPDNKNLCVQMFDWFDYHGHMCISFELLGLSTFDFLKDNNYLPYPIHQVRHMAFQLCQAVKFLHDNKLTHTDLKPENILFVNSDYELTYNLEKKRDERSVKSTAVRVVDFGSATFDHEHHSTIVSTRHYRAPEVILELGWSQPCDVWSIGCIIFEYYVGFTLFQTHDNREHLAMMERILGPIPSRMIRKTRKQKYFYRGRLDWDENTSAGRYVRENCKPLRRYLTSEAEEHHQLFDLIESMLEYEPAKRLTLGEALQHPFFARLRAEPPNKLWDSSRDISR
Sequence of JNK3(h) (P53779 whole entry): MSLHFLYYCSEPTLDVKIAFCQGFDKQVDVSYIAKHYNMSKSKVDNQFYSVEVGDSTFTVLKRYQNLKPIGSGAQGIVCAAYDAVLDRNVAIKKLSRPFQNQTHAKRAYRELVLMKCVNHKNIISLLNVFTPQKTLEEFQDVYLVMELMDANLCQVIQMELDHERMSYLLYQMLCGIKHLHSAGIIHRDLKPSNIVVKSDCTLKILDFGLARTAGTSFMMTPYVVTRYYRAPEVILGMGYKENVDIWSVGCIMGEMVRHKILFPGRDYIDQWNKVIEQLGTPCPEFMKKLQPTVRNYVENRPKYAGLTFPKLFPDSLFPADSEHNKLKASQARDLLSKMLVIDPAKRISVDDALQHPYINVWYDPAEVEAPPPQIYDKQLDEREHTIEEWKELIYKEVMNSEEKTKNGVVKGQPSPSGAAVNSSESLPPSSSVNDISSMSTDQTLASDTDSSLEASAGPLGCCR
Sequence of Plk1(h) (P53350 whole entry): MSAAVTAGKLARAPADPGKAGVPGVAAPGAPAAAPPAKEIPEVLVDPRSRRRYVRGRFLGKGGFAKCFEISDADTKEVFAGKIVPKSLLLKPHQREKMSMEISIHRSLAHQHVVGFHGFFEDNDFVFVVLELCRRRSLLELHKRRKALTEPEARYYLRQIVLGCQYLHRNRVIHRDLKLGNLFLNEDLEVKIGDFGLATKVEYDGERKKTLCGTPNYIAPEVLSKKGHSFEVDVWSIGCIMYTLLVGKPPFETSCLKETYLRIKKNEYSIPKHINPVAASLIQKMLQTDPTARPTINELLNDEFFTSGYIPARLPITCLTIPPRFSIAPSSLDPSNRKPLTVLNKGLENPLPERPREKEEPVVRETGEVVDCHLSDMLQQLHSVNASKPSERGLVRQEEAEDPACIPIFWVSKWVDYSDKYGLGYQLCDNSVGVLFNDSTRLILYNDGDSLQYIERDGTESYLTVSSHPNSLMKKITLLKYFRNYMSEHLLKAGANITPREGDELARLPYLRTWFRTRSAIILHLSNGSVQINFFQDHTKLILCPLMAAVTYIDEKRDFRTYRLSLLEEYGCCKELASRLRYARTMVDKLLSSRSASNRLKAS
Sequence of CDK7/cyclinH/MAT1(h) (P50613 whole entry): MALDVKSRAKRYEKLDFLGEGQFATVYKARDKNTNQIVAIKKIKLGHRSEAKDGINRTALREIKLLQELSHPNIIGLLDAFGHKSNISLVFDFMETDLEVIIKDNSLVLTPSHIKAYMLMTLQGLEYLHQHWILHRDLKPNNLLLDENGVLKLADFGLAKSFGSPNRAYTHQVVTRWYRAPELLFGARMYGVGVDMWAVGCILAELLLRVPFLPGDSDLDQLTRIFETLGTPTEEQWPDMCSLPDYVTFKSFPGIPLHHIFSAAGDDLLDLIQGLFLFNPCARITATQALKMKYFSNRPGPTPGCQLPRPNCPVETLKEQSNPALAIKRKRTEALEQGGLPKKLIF
Sequence of CDK7/cyclinH/MAT1(h) (P51946 whole entry partner): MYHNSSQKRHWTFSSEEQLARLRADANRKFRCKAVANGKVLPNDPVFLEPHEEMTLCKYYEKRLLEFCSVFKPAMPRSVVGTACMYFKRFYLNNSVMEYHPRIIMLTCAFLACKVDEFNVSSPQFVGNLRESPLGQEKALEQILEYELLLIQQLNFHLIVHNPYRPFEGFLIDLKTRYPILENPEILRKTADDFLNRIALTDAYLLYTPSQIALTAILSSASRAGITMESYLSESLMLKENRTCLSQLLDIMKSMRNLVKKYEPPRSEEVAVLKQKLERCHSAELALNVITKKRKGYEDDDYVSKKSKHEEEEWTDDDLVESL
Sequence of CDK7/cyclinH/MAT1(h) (P51948 whole entry partner): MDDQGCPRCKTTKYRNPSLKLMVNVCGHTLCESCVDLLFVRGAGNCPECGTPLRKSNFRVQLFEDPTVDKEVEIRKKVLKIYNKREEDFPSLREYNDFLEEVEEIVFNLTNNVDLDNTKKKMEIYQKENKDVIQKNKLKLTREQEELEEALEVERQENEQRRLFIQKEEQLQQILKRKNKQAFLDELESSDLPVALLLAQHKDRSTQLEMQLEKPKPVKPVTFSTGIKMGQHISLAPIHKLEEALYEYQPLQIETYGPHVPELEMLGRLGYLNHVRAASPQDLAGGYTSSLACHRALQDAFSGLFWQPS

Consider `Nc1n[nH]c2ccc(-c3ccnc4[nH]c(-c5ccnc(OCc6ccccc6)c5)cc34)cc12` [Compound 6g [SU1349]], for which the inhibition at 1 µM was 68% on CLK2(h); 36% against Flt3(h); 5% against CK1δ(h); -5% against CHK2(h); 62% on JNK3(h); 14% on CDK7/cyclinH/MAT1(h). For the same molecule, the inhibition at 1 µM was -9% at PKCμ(h), 2% at Plk1(h), 2% at CK2(h) and 99% on CDK9/cyclin T1(h).

For the molecule `Nc1n[nH]c2ccc(-c3ccnc4[nH]c(-c5cccc(OCc6ccccc6)c5)cc34)cc12` [Compound 5r [SU1261]], the inhibition at 1 µM at CLK2(h) stood at 80%; at Flt3(h), 46%; against CK1δ(h), 14%; against CHK2(h), 13%; against JNK3(h), 86%; at CDK7/cyclinH/MAT1(h), 37%. Also, the inhibition at 1 µM on PKCμ(h) was 18%; on Plk1(h), -1%; on CK2(h), -5%; against CDK9/cyclin T1(h), 98%.

In the case of `Nc1n[nH]c2ccc(-c3ccnc4[nH]c(-c5ccccc5)cc34)cc12` [Compound 4], the inhibition at 1 µM on CLK2(h) came to 97%; against Flt3(h), 102%; against CK1δ(h) it was 58%; against CHK2(h), 28%; against JNK3(h), 99%; on CDK7/cyclinH/MAT1(h), 85%. Further, the inhibition at 1 µM on PKCμ(h) is 21%; on Plk1(h), -5%; against CK2(h) it was -7%; against CDK9/cyclin T1(h) it was 98%.

(Values after paper PMC11314561, “Design and Synthesis of Novel Aminoindazole-pyrrolo[2,3-b]pyridine Inhibitors of IKKα That Selectively Perturb Cellular Non-Canonical NF-κB Signalling” (Molecules, 2024).)
